The results in this text go back to patent publication US4530714A, “N-aliphatic and N,N-aliphatic phosphoric triamide urease inhibitors and urease inhibited urea based fertilizer compositions” (Allied Corporation, priority 1984, dated 1985).

Series [1] deals with urease. Put plainly: Soil urease inhibition efficacy test, Cazenovia silt loam (New York soil). It counts as biochemical. The note with it: 25° C., three days; for % Inhibition Cazenovian pH 7.3: Cazenovia silt loam pH 7.3, 800 micrograms compound and 42.8 mg urea per 20 g soil; for % Inhibition Cazenovian pH 7.0: Cazenovia silt loam pH 7.0, 200 micrograms compound per 20 g soil. The protocol:
(§1) Efficacy tests were conducted to evaluate the efficacy of certain representative phosphoric triamide compounds as urease inhibitors. The inhibition tests were run in a New York soil (Cazenovia silt loam, pH 7.0 or 7.3) or in a Wisconsin Soil (Plano silt loam, pH 5.3). […] The bottle was capped with perforated aluminum foil and incubated at 25° C. for three days prior to extraction with 100 mL of a 2M potassium chloride solution containing 0.5 mg of phenylmercuric acetate. The extracts were then analyzed for remaining urea using an autoanalyzer. Percent inhibition was calculated as
(§2) % Inhibition=[1-(A-B/A-C)]×100%
(§3) where A is urea recovered from unincubated sample (urea added to soil and immediately extracted); B is urea recovered from inhibited sample; and C is urea recovered from the control (uninhibited sample).

For series [2], the system named is urease. Put plainly: Soil urease inhibition efficacy test, Plano silt loam (Wisconsin soil). In kind it is biochemical. The note with it: Plano silt loam pH 5.3, 25° C., three days. On the procedure: as §1, §2, §3
Series [3] has as its system urease. As to the kind of experiment: Long term urease inhibition, inhibited Cazenovia soil preincubated or left open 11 days before urea application. In kind it is biochemical. The note with it: 200 micrograms compound; for % Inhibition, Preincubated for 11 days Open: allowed to volatilize for 11 days prior to urea application; for % Inhibition, Preincubated for 11 days at 25° C.: inhibited soil incubated 11 days at 25° C. prior to urea application; for % Inhibition, Preincubated for 11 days at 35° C.: inhibited soil incubated 11 days at 35° C. prior to urea application. The protocol:
Efficacy tests were conducted to evaluate the efficacy of certain representative phosphoric triamide compounds as urease inhibitors. The inhibition tests were run in a New York soil (Cazenovia silt loam, pH 7.0 or 7.3) or in a Wisconsin Soil (Plano silt loam, pH 5.3). Evaluations (run in triplicate) consisted of applying 800 micrograms of the test compound in 5 mL of water and 42.8 mg of urea in 1 mL of water to 20 g of air-dry soil in a glass bottle. The bottle was capped with perforated aluminum foil and incubated at 25° C. for three days prior to extraction with 100 mL of a 2M potassium chloride solution containing 0.5 mg of phenylmercuric acetate. The extracts were then analyzed for remaining urea using an autoanalyzer. Percent inhibition was calculated as
as §2, §3
The percent inhibition observed, as determined by the means described in Example XVI except using 200 micrograms of the test compound, are set forth in Table II

Series [4] has as its system urease. Put plainly: Percent inhibition versus time in soil (FIG. 1, FIG. 2). In kind it is biochemical. The conditions noted are these: soil at 25° C. (FIG. 1) and 35° C. (FIG. 2); compared with phenyl phosphorodiamidate. The protocol:
FIG. 1 is a plot of percent inhibition versus time in soils at 25° C. for N,N-diethylphosphorictriamide, a urease inhibitor useful in the practice of this invention, and for the known urease inhibitor, phenyl phosphorodiamidate, and FIG. 2 is a plot of percent inhibition versus time in soil at 35° C. for the same compounds.

The nature of series [5]: Solubility in water (as needed for efficacy test). In kind it is physicochemical. The conditions noted are these: efficacy test application.
Setting [6] is: 800 micrograms compound and 42.8 mg urea per 20 g soil.
Where [7] appears, read: 200 micrograms compound per 20 g soil.

As for `CN(Cc1ccccc1)P(N)(N)=O` [Compound 4, N-Benzyl-N-methylphosphoric Triamide], the “% Inhibition Cazenovian pH 7.3” value with urease [1] turned out to be 96%.

Regarding `CCCCNP(N)(N)=O` [Compound 9, N-(n-Butyl)phosphoric Triamide], in the series with urease [1], the “% Inhibition Cazenovian pH 7.3” value turned out to be 99%. Besides, the “% Inhibition Wisconsin pH 5.3” value in the series with urease [2] (setting [6]) came to 52%. In the series with urease [3], the “% Inhibition, Preincubated for 11 days Open” value worked out at 78%; the “% Inhibition, Preincubated for 11 days at 25° C.” value (shortened to “% Inhibition … at 25° C.”) stood at 75%; the “% Inhibition, Preincubated for 11 days at 35° C.” value (from here on “% Inhibition … at 35° C.”) came to 68%; the “% Inhibition, No Preincubation” value is reported as 96%.

Consider `CN(Cc1ccccc1)P(N)(N)=S` [Compound 16, N-Benzyl-N-methylthiophosphoric Triamide], for which, in the series on urease [1], the “% Inhibition Cazenovian pH 7.0” value is 43%. In addition, the “% Inhibition Wisconsin pH 5.3” value in the series on urease [2] (setting [7]) was found to be 24%.

Take `CCC(C)NP(N)(N)=S` (stereo not shown) [Compound 20, N-(sec-Butyl)thiophosphoric Triamide]: the “% Inhibition Cazenovian pH 7.0” value in the series with urease [1] is recorded as 65%. The “% Inhibition Wisconsin pH 5.3” value in the series on urease [2] (setting [7]) stood at 51%.

For `CCCCNP(N)(N)=S` [Compound 10, N-(n-Butyl)thiophosphoric Triamide], the “% Inhibition Cazenovian pH 7.3” value in the series on urease [1] came out at 98%. For the same compound, the “% Inhibition Wisconsin pH 5.3” value with urease [2] (setting [6]) is reported as 95%. Also, in the series on urease [3], the “% Inhibition, Preincubated for 11 days Open” value worked out at 94%; the “% Inhibition … at 25° C.” value is reported as 98%; the “% Inhibition … at 35° C.” value was determined as 89%; the “% Inhibition, No Preincubation” value amounted to 90%.

In the case of `NP(N)(=O)Oc1ccccc1` [Phenyl Phosphorodiamidate, phenyl phosphorodiamidate, reference compound], in the series on urease [3], the “% Inhibition, Preincubated for 11 days Open” value was found to be 50%; the “% Inhibition … at 25° C.” value is reported as 26%; the “% Inhibition … at 35° C.” value was found to be 16%; the “% Inhibition, No Preincubation” value was 76%.

With `CCCCCCCCCCCCNP(N)(N)=O` [Compound 13, N-(n-Dodecyl)phosphoric Triamide], the “% Inhibition Cazenovian pH 7.3” value in the series on urease [1] was determined as 81%. Besides, in the series with urease [2] (setting [6]), the “% Inhibition Wisconsin pH 5.3” value was determined as 28%.

For the compound `C=CCNP(N)(N)=O` [Compound 3, N-Allylphosphoric Triamide], the “% Inhibition Cazenovian pH 7.3” value in the series on urease [1] amounted to 93%.

Take `CC(C)NP(N)(N)=O` [Compound 7, N-Isopropylphosphoric Triamide]: the “% Inhibition Cazenovian pH 7.3” value in the series on urease [1] is reported as 97%.

`CCN(CC)P(N)(N)=O` [Compound 1, N,N-Diethylphosphoric Triamide]: in the series with urease [1], the “% Inhibition Cazenovian pH 7.3” value is on record as 94%. The “duration of the urease inhibiting activity” value in the series with urease [4] was “much superior”.

Turning to `CCCCCCNP(N)(N)=S` [Compound 18, N-(n-Hexyl)thiophosphoric Triamide], in the series with urease [1], the “% Inhibition Cazenovian pH 7.0” value turned out to be 97%. Further, the “% Inhibition Wisconsin pH 5.3” value in the series on urease [2] (setting [7]) came to 52%.

As for `NP(N)(=S)NC1CCCCC1` [Compound 17, N-Cyclohexylthiophosphoric Triamide], in the series with urease [1], the “% Inhibition Cazenovian pH 7.0” value is reported as 84%. Also, in the series with urease [2] (setting [7]), the “% Inhibition Wisconsin pH 5.3” value stood at 58%.

As to `CCCCCCCCNP(N)(N)=O` [Compound 12, N-(n-Octyl)phosphoric Triamide], in the series on urease [1], the “% Inhibition Cazenovian pH 7.3” value was determined as 98%. Besides, in the series on urease [2] (setting [6]), the “% Inhibition Wisconsin pH 5.3” value came out at 51%. In the series on urease [3], the “% Inhibition, Preincubated for 11 days Open” value turned out to be 66%; the “% Inhibition … at 25° C.” value is listed as 39%; the “% Inhibition … at 35° C.” value is 36%; the “% Inhibition, No Preincubation” value is 95%.

Take `CCN(CC)P(N)(N)=S` [Compound 14, N,N-Diethylthiophosphoric Triamide]: the “% Inhibition Cazenovian pH 7.3” value in the series on urease [1] stood at 61%. The “% Inhibition Wisconsin pH 5.3” value in the series with urease [2] (setting [6]) is listed as 53%.

`NP(N)(=O)NC1CCCCC1` [Compound 5, N-Cyclohexylphosphoric Triamide]: the “% Inhibition Cazenovian pH 7.3” value in the series with urease [1] is given as 98%.

Turning to `CCNP(N)(N)=O` [Compound 8, N-Ethylphosphoric Triamide], the “% Inhibition Cazenovian pH 7.3” value with urease [1] worked out at 99%. The “% Inhibition Wisconsin pH 5.3” value in the series with urease [2] (setting [6]) is reported as 47%. Moreover, in the series on urease [3], the “% Inhibition, Preincubated for 11 days Open” value stood at 72%; the “% Inhibition … at 25° C.” value worked out at 74%; the “% Inhibition … at 35° C.” value is recorded as 55%; the “% Inhibition, No Preincubation” value is 95%.

Turning to `NP(N)(=O)N1CCCCC1` [Compound 6, N-(Diaminophosphinyl)piperidine], in the series on urease [1], the “% Inhibition Cazenovian pH 7.3” value stood at 94%.

For the compound `NP(N)(=S)N1CCCC1` [Compound 19, N-(Diaminothiophosphinyl)pyrrolidine], in the series on urease [1], the “% Inhibition Cazenovian pH 7.0” value is listed as 77%. The “% Inhibition Wisconsin pH 5.3” value in the series with urease [2] (setting [7]) was determined as 23%.

As for `CN(C1CCCCC1)P(N)(N)=O` [Compound 15, N-Cyclohexyl-N-methylphosphoric Triamide], in the series with urease [1], the “% Inhibition Cazenovian pH 7.3” value was determined as 92%. In addition, in the series on urease [2] (setting [6]), the “% Inhibition Wisconsin pH 5.3” value is recorded as 48%. Besides, in the series on urease [3], the “% Inhibition, Preincubated for 11 days Open” value is given as 67%; the “% Inhibition … at 25° C.” value came to 78%; the “% Inhibition … at 35° C.” value is listed as 78%; the “% Inhibition, No Preincubation” value was 80%.

`CCC(C)NP(N)(N)=O` (stereo not shown) [Compound 11, N-(sec-Butyl)phosphoric Triamide]: in the series with urease [1], the “% Inhibition Cazenovian pH 7.3” value is listed as 96%. In the series on urease [2] (setting [6]), the “% Inhibition Wisconsin pH 5.3” value was 66%. Moreover, in the series on urease [3], the “% Inhibition, Preincubated for 11 days Open” value is given as 77%; the “% Inhibition … at 25° C.” value came to 90%; the “% Inhibition … at 35° C.” value was 85%; the “% Inhibition, No Preincubation” value is reported as 92%.

Take `CCCCN(CCCC)P(N)(N)=S` [Compound 23, N,N-Di-(n-Butyl)thiophosphoric Triamide]: the “% Inhibition Cazenovian pH 7.0” value with urease [1] is reported as 67%. For the same compound, the “% Inhibition Wisconsin pH 5.3” value in the series on urease [2] (setting [7]) stood at 37%.

Take `CN(C)P(N)(N)=O` [Compound 2, N,N-Dimethylphosphoric Triamide]: the “% Inhibition Cazenovian pH 7.3” value in the series with urease [1] was 98%.

Regarding `CC(C)N(C(C)C)P(N)(N)=S` [Compound 21, N,N-Diisopropylthiophosphoric Triamide], in series [5], the solubility in water entry is reported as “too insoluble in water to obtain significant data”.

As to `NP(N)(=S)N1CCCCC1` [Compound 22, N-(Diaminothiophosphinyl)piperidine], the “% Inhibition Cazenovian pH 7.0” value with urease [1] turned out to be 66%. Moreover, the “% Inhibition Wisconsin pH 5.3” value in the series with urease [2] (setting [7]) turned out to be 0%.
